# Legend:
# [1] = Therapeutic drug monitoring of plasma dalbavancin concentrations (Cmin, Cmax) by LC-MS/MS; assay type: in vivo, human (patients)
# Excerpt: This study involved a retrospective analysis of TDM that was routinely carried out by the ASST Fatebenefratelli Sacco University Hospital (Milan, Italy) from December 2021 to November 2023; the analysis included samples that were collected within our hospital and those received from other hospitals (our laboratory is a reference laboratory for the TDM of dalbavancin in Lombardy Region, Italy). This service also included the on-demand estimation of the next dalbavancin injection. This estimation required the collection of both the Cmin and the Cmax for dalbavancin. […] Plasma blood samples with dalbavancin were assessed by using ethylene diamine tetra-acetic acid (EDTA)-containing Vacutainers®. All samples were centrifuged at 3000× g, and the plasma was separated and stored at −20 °C. Dalbavancin quantification was performed through a validated LC-MS/MS method that was developed and validated according to the EMA guidelines. The analytical process consisted of a fast protein precipitation protocol of 50 µL of plasma with 400 µL of precipitation solution (methanol/acetonitrile 3/1), centrifugation at 10,000× g, 1:3 dilutions with water, and analysis. […] Waters, Milan, Italy). For quantification, analysis was performed in the ESI-positive mode by monitoring the transition (m/z = 909.45 > 340.2) for dalbavancin.
# [2] = Log-linear regression models describing the time distribution of dalbavancin concentrations; details: for Days >4 mg/L / Days >8 mg/L: log-linear regression model, pooled patients
# Protocol: Coupled with the Cmin values, these samples facilitated the development of log-linear regression models describing the time distribution of dalbavancin concentrations for each injection. By targeting the Cmin values for dalbavancin that were not lower than 4 or 8 mg/L, we were able to estimate the number of days needed between each injection to guarantee these targets.
# We retrospectively analyzed data from adult patients who received at least 3 doses of dalbavancin for the treatment of osteoarticular and/or periprosthetic joint infections for whom TDM was performed as part of clinical practice. On the day of the scheduled injection, the Cmin for dalbavancin within a 1 h time window before the injection was considered for both Cmin- and Cmax-based TDM. Peak drug concentrations (30 to 60 min after the end of the infusion) were collected only in patients subjected to Cmax-based TDM.
# Dalbavacin concentrations were considered both as a continuous variable (expressed as the mean ± standard deviation) and categorical variables, and data (expressed as a percentage) were clustered according to their frequency distribution within the therapeutic ranges proposed in the available literature (>4 or >8 mg/L). Inter-individual variability in the dalbavancin concentrations was calculated as the percentage of the coefficient of variation (CV%). Log-linear regressions were performed using the built-in statistical package in Microsoft Excel (Microsoft Office Software, Microsoft Company, Redmond, WA, USA). The goodness of the log-linear regression models developed by plotting logarithmic concentrations (Y) of dalbavancin with time (X) was quantified using the coefficient of correlation (r). Unpaired t-tests were used to compare the Cmin for dalbavancin, the number of drug injections, and the times of injections between Cmin- and Cmax-based TDM. Statistical significance was set at <0.05 (significant difference) and <0.01 (highly significant difference).
# [3] = cited from earlier work
compound,measurement,setting,value
CN[C@H]1C(=O)N[C@@H]2Cc3ccc(cc3)Oc3cc4cc(c3O[C@@H]3O[C@H](C(=O)O)[C@@H](O)[C@H](O)[C@H]3NC(=O)CCCCCCCCC(C)C)Oc3ccc(cc3Cl)[C@@H](O)[C@@H]3NC(=O)[C@H](NC(=O)[C@@H]4NC(=O)[C@@H](NC2=O)c2cc(cc(O)c2Cl)Oc2cc1ccc2O)c1ccc(O)c(c1)-c1c(O[C@H]2O[C@H](CO)[C@@H](O)[C@H](O)[C@@H]2O)cc(O)cc1[C@@H](C(=O)NCCCN(C)C)NC3=O [dalbavancin],"Cmax of dalbavancin, range","[1]; 107 TDM assessments, plasma, 30 to 60 min after end of infusion, LC-MS/MS, range",74.9 to 995.6 µg/mL
same,Dalbavancin Cmin CV%,"[1]; Cmax-based TDM, 2nd injection",44%
same,Dalbavancin Cmin CV%,"[1]; Cmax-based TDM, 3rd injection",46%
same,Dalbavancin Cmin CV%,"[1]; Cmax-based TDM, 4th injection",40%
same,Dalbavancin Cmin CV%,"[1]; Cmax-based TDM, 5th injection",21%
same,Dalbavancin Cmin CV%,"[1]; Cmax-based TDM, 6th injection",32%
same,Dalbavancin Cmin CV%,"[1]; Cmax-based TDM, ≥6 injections",32%
same,Dalbavancin Cmin CV%,"[1]; Cmin-based TDM, 2nd injection",45%
same,Dalbavancin Cmin CV%,"[1]; Cmin-based TDM, 3rd injection",57%
same,Dalbavancin Cmin CV%,"[1]; Cmin-based TDM, 4th injection",43%
same,Dalbavancin Cmin CV%,"[1]; Cmin-based TDM, 5th injection",56%
same,Dalbavancin Cmin CV%,"[1]; Cmin-based TDM, 6th injection",41%
same,Dalbavancin Cmin CV%,"[1]; Cmin-based TDM, ≥6 injections",37%
same,"Cmin for dalbavancin, range","[1]; human, in vivo, iv",4.1 to 70.5 µg/mL
same,Cmin for dalbavancin before the second injection,"[1]; human, in vivo, iv, SD",39.6 ± 35.4 µg/mL
same,"Cmin for dalbavancin, mean","[1]; human, in vivo, iv, SD",20.7 ± 14.0 µg/mL
same,Cmax,"[1]; human, in vivo, SD",310 ± 158 µg/mL
same,Days >4 mg/L,[2]; 2nd injection,52 days
same,Days >8 mg/L,[2]; 2nd injection,42 days
same,Days >4 mg/L,[2]; 3rd injection,52 days
same,Days >8 mg/L,[2]; 3rd injection,43 days
same,Days >4 mg/L,[2]; 4th injection,59 days
same,Days >8 mg/L,[2]; 4th injection,48 days
same,Days >4 mg/L,[2]; 5th injection,56 days
same,Days >8 mg/L,[2]; 5th injection,45 days
same,Days >4 mg/L,[2]; 6th injection,53 days
same,Days >8 mg/L,[2]; 6th injection,44 days
same,Days >4 mg/L,[2]; >6 injections,52 days
same,Days >8 mg/L,[2]; >6 injections,42 days
same,Days >4 mg/L,[2]; Overall,54 days
same,Days >8 mg/L,[2]; Overall,44 days
same,Days between injections needed to maintain Cmin >8 mg/L,"[2]; estimated from pooled log-linear regression models, range over injections",42 to 48 days
same,terminal half-life,"[3]; ref [1],[2],[3],[4]",> 14 days
same,total volume of distribution,"[3]; ref [2],[3]",~16 L

# Reference: PMC10812767, “Therapeutic Drug Monitoring of Dalbavancin in Real Life: A Two-Year Experience” (Antibiotics, 2023)
